Assay results taken from ChEMBL document CHEMBL1201862, “PubChem BioAssay data set” (2004).
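48-hour exposure; five concentrations; linearly interpolated endpoints. GI50: concentration for 50% inhibition of growth.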 The source made the active and inactive calls. Rule as the data show it: active = GI50 up to about 1.1 µM and inactive = higher.

Columns and labels:
Assay in all cases: DTP human tumour cell line panel, 48 h
786-0 = tested on: 786-0
A498 = tested on: A498
A549 = tested on: A549
ACHN = tested on: ACHN
CAKI-1 = tested on: CAKI-1
COLO 205 = tested on: COLO 205
DLD-1 = tested on: DLD-1
DMS-114 = tested on: DMS-114
DMS-273 = tested on: DMS-273
EKVX = tested on: EKVX
HCC 2998 = tested on: HCC 2998
HCT-116 = tested on: HCT-116
HCT-15 = tested on: HCT-15
HL-60 = tested on: HL-60
HOP-18 = tested on: HOP-18
HOP-62 = tested on: HOP-62
HOP-92 = tested on: HOP-92
HT-29 = tested on: HT-29
IGROV-1 = tested on: IGROV-1
K562 = tested on: K562
KM-20L2 = tested on: KM-20L2
KM12 = tested on: KM12
LOX IMVI = tested on: LOX IMVI
LXFL 529 = tested on: LXFL 529
M14 = tested on: M14
M19-MEL = tested on: M19-MEL
MOLT-4 = tested on: MOLT-4
Malme-3M = tested on: Malme-3M
NCI-H226 = tested on: NCI-H226
NCI-H23 = tested on: NCI-H23
NCI-H522 = tested on: NCI-H522
OVCAR-3 = tested on: OVCAR-3
OVCAR-4 = tested on: OVCAR-4
OVCAR-5 = tested on: OVCAR-5
OVCAR-8 = tested on: OVCAR-8
RPMI-8226 = tested on: RPMI-8226
RXF 393 = tested on: RXF 393
RXF 631 = tested on: RXF 631
SF-268 = tested on: SF-268
SF-295 = tested on: SF-295
SF-539 = tested on: SF-539
SK-MEL-28 = tested on: SK-MEL-28
SK-MEL-2 = tested on: SK-MEL-2
SK-MEL-5 = tested on: SK-MEL-5
SN12C = tested on: SN12C
SNB-19 = tested on: SNB-19
SNB-75 = tested on: SNB-75
SNB-78 = tested on: SNB-78
SR = tested on: SR
SW-620 = tested on: SW-620
TK-10 = tested on: TK-10
U-251 = tested on: U-251
UACC-257 = tested on: UACC-257
UACC-62 = tested on: UACC-62
UO-31 = tested on: UO-31
XF498 = tested on: XF498
CCRF-CEM = tested on: CCRF-CEM
NCI-H460 = tested on: NCI-H460
SK-OV-3 = tested on: SK-OV-3

COc1ccc(Cc2c3cc(OC)c(OC)cc3cc[n+]2C)cc1
GI50 (786-0): > 23.8 µM (inactive)
GI50 (A498): > 100 µM (inactive)
GI50 (A549): 9.35 µM (inactive)
GI50 (ACHN): > 29.2 µM (inactive)
GI50 (CAKI-1): > 48.3 µM (inactive)
GI50 (COLO 205): 5.21 µM (inactive)
GI50 (DLD-1): > 18 µM (inactive)
GI50 (DMS-114): 2.82 µM (inactive)
GI50 (DMS-273): 2.22 µM (inactive)
GI50 (EKVX): > 39 µM (inactive)
GI50 (HCC 2998): > 25.2 µM (inactive)
GI50 (HCT-116): 15 µM (inactive)
GI50 (HCT-15): > 31.3 µM
GI50 (HL-60): 1.21 µM (inactive)
GI50 (HOP-18): > 27.9 µM (inactive)
GI50 (HOP-62): > 20.8 µM (inactive)
GI50 (HOP-92): 23.1 µM (inactive)
GI50 (HT-29): 13.4 µM (inactive)
GI50 (IGROV-1): 38.7 µM (inactive)
GI50 (K562): 34.4 µM (inactive)
GI50 (KM-20L2): 10.3 µM (inactive)
GI50 (KM12): 9.29 µM (inactive)
GI50 (LOX IMVI): > 14.2 µM (inactive)
GI50 (LXFL 529): 3.18 µM (inactive)
GI50 (M14): > 21.7 µM (inactive)
GI50 (M19-MEL): 12.6 µM (inactive)
GI50 (MOLT-4): > 100 µM (inactive)
GI50 (Malme-3M): 27.2 µM (inactive)
GI50 (NCI-H226): 33.1 µM (inactive)
GI50 (NCI-H23): 8.3 µM (inactive)
GI50 (NCI-H522): 19.9 µM (inactive)
GI50 (OVCAR-3): 7.28 µM (inactive)
GI50 (OVCAR-4): 19.8 µM (inactive)
GI50 (OVCAR-5): > 100 µM (inactive)
GI50 (OVCAR-8): 6.85 µM (inactive)
GI50 (RPMI-8226): 24.5 µM (inactive)
GI50 (RXF 393): > 25.6 µM (inactive)
GI50 (RXF 631): > 10.3 µM (inactive)
GI50 (SF-268): 4.7 µM (inactive)
GI50 (SF-295): 5.73 µM (inactive)
GI50 (SF-539): 18.7 µM (inactive)
GI50 (SK-MEL-28): 32.6 µM (inactive)
GI50 (SK-MEL-2): > 29.1 µM (inactive)
GI50 (SK-MEL-5): 21.2 µM (inactive)
GI50 (SN12C): 4.93 µM (inactive)
GI50 (SNB-19): 6.81 µM (inactive)
GI50 (SNB-75): 9.25 µM (inactive)
GI50 (SNB-78): 58.1 µM (inactive)
GI50 (SR): 2.2 µM (inactive)
GI50 (SW-620): > 100 µM (inactive)
GI50 (TK-10): > 52.5 µM (inactive)
GI50 (U-251): 13.5 µM (inactive)
GI50 (UACC-257): 20.4 µM (inactive)
GI50 (UACC-62): 18.9 µM (inactive)
GI50 (UO-31): > 34 µM (inactive)
GI50 (XF498): 4.99 µM (inactive)

O=C(/C=C/c1ccc([N+](=O)[O-])cc1)c1ccc(NCc2nc3ccccc3[nH]2)cc1
GI50 (786-0): 3.13 µM (inactive)
GI50 (A498): 7.24 µM (inactive)
GI50 (ACHN): 10.5 µM (inactive)
GI50 (CAKI-1): 6.52 µM (inactive)
GI50 (CCRF-CEM): 1.57 µM (inactive)
GI50 (COLO 205): 2.07 µM (inactive)
GI50 (DLD-1): 3.97 µM (inactive)
GI50 (DMS-114): 1.91 µM (inactive)
GI50 (DMS-273): 3.05 µM (inactive)
GI50 (EKVX): 7.69 µM (inactive)
GI50 (HCC 2998): 2.61 µM (inactive)
GI50 (HCT-15): 2.93 µM
GI50 (HL-60): 1.6 µM (inactive)
GI50 (HOP-18): 16.4 µM (inactive)
GI50 (HOP-62): 10 µM (inactive)
GI50 (HOP-92): 8.57 µM (inactive)
GI50 (HT-29): 3.44 µM (inactive)
GI50 (IGROV-1): 4.48 µM (inactive)
GI50 (K562): 2.3 µM (inactive)
GI50 (KM-20L2): 3.98 µM (inactive)
GI50 (KM12): 1.78 µM (inactive)
GI50 (LOX IMVI): 2.43 µM (inactive)
GI50 (LXFL 529): 2.9 µM (inactive)
GI50 (M14): 11.5 µM (inactive)
GI50 (M19-MEL): 3.94 µM (inactive)
GI50 (MOLT-4): 3.51 µM (inactive)
GI50 (Malme-3M): 14.2 µM (inactive)
GI50 (NCI-H23): 3.75 µM (inactive)
GI50 (NCI-H460): 2.22 µM (inactive)
GI50 (NCI-H522): 3.26 µM (inactive)
GI50 (OVCAR-3): 3.09 µM (inactive)
GI50 (OVCAR-4): 13.3 µM (inactive)
GI50 (OVCAR-5): 13.5 µM (inactive)
GI50 (OVCAR-8): 2.68 µM (inactive)
GI50 (RXF 631): 3.49 µM (inactive)
GI50 (SF-268): 5.71 µM (inactive)
GI50 (SF-295): 3.86 µM (inactive)
GI50 (SF-539): 2.84 µM (inactive)
GI50 (SK-MEL-28): 13 µM (inactive)
GI50 (SK-MEL-2): 14.9 µM (inactive)
GI50 (SK-MEL-5): 5.18 µM (inactive)
GI50 (SK-OV-3): 13.6 µM (inactive)
GI50 (SN12C): 2.96 µM (inactive)
GI50 (SNB-19): 3.56 µM (inactive)
GI50 (SNB-75): 3.93 µM (inactive)
GI50 (SNB-78): 5.81 µM (inactive)
GI50 (SR): 3.34 µM (inactive)
GI50 (SW-620): 2.25 µM (inactive)
GI50 (TK-10): 5.96 µM (inactive)
GI50 (U-251): 1.75 µM (inactive)
GI50 (UACC-257): 3.41 µM (inactive)
GI50 (UACC-62): 9.84 µM (inactive)
GI50 (UO-31): 4.98 µM (inactive)
GI50 (XF498): 6.17 µM (inactive)
